According to ChEMBL document CHEMBL1201862, “PubChem BioAssay data set” (2004):
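1) Cells in 96-well plates. 2) Compound, 48 h, 5 concentrations. 3) Linear interpolation between surrounding doses. 4) Unreached endpoint = highest concentration. GI50 = concentration required for 50% inhibition of growth.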 Activity calls are given as the source filed them. No stated cut-off is given here; in the data, active = GI50 up to about 1.1 µM and inactive = higher.

Tests used:
Experiment in all cases: NCI-60 cell line screen, 48 h
MDA-MB-435 = system: MDA-MB-435
CCRF-CEM = system: CCRF-CEM
OVCAR-5 = system: OVCAR-5
UACC-62 = system: UACC-62
TK-10 = system: TK-10
Malme-3M = system: Malme-3M
IGROV-1 = system: IGROV-1
SF-295 = system: SF-295
EKVX = system: EKVX
SK-MEL-5 = system: SK-MEL-5
K562 = system: K562
HCC 2998 = system: HCC 2998
HCT-116 = system: HCT-116
KM12 = system: KM12
LOX IMVI = system: LOX IMVI
Hs-578T = system: Hs-578T
SK-MEL-2 = system: SK-MEL-2

Measured: GI50

COc1ccc(C2Oc3c(cccc3-c3c(-c4ccc(O)cc4)oc4cc(O)cc(O)c4c3=O)C(=O)C2O)cc1O (centres undefined)
inactive: MDA-MB-435 > 100 µM | CCRF-CEM > 100 µM | OVCAR-5 > 100 µM | UACC-62 > 100 µM | TK-10 > 100 µM | Malme-3M > 100 µM | IGROV-1 > 100 µM | SF-295 > 100 µM | EKVX > 100 µM | SK-MEL-5 > 100 µM | K562 > 100 µM | HCC 2998 > 100 µM | HCT-116 > 100 µM

O=C(NCCc1n[nH]c2c1C(=O)C=C(Nc1ccccc1)C2=O)OCc1ccccc1
inactive: MDA-MB-435 > 100 µM | KM12 > 100 µM | CCRF-CEM > 100 µM | LOX IMVI > 100 µM | Hs-578T > 100 µM | OVCAR-5 > 100 µM | UACC-62 8.09 µM | TK-10 > 100 µM | IGROV-1 > 100 µM | SF-295 > 100 µM | SK-MEL-2 > 100 µM | EKVX > 100 µM | SK-MEL-5 > 100 µM | HCT-116 97.3 µM

O=C(Nc1nnc(-c2c(Cl)c(Cl)c(Cl)c(Cl)c2-c2nc3cc(C(=O)c4ccccc4)ccc3[nH]2)o1)c1ccccc1
inactive: MDA-MB-435 3.89 µM | KM12 23.2 µM | CCRF-CEM 8.36 µM | LOX IMVI 15.1 µM | OVCAR-5 26.4 µM | TK-10 21.8 µM | IGROV-1 13.6 µM | SF-295 9.46 µM | SK-MEL-2 17.7 µM | EKVX 17.9 µM | SK-MEL-5 5.07 µM | K562 5.78 µM | HCT-116 23.3 µM

O=C(O)Cc1ccc(-n2nnc3c(=O)[nH][nH]c(=O)c32)cc1
inactive: MDA-MB-435 > 100 µM | KM12 > 100 µM | CCRF-CEM > 100 µM | LOX IMVI > 100 µM | OVCAR-5 > 100 µM | TK-10 > 100 µM | Malme-3M > 100 µM | SF-295 > 100 µM | SK-MEL-2 > 100 µM | EKVX > 100 µM | SK-MEL-5 > 100 µM | K562 > 100 µM | HCC 2998 > 100 µM | HCT-116 > 100 µM

O=C(O)C[C@@H]1[C@@H](O)[C@@H](O)CN2C(=O)c3ccccc3[C@H]12
inactive: MDA-MB-435 > 100 µM | KM12 > 100 µM | LOX IMVI > 100 µM | OVCAR-5 > 100 µM | UACC-62 > 100 µM | TK-10 > 100 µM | Malme-3M > 100 µM | IGROV-1 > 100 µM | SF-295 > 100 µM | SK-MEL-2 > 100 µM | EKVX > 100 µM | SK-MEL-5 > 100 µM | K562 > 100 µM | HCC 2998 > 100 µM | HCT-116 > 100 µM
